melting point: 107 to 110 °C
Structure (SMILES): O=C1OC(=O)C(Br)=C1Br [compound 1, 2,3-dibromo-maleic anhydride]

— patent US10010623B2, “Lysosome-cleavable linker” (UCL Business PLC, priority 2012, dated 2018)
